Test results published in ChEMBL document CHEMBL5104202, “Structure-Uptake Relationship Studies of Oxazolidinones in Gram-Negative ESKAPE Pathogens” (J Med Chem, 2022).

Legend:
Format in all cases: functional, organism-based
Acinetobacter baumannii [1] = test: Antibacterial activity against efflux pump lacking Acinetobacter baumannii assessed as inhibition of bacterial growth
Acinetobacter baumannii [2] = test: Antibacterial activity against efflux pump lacking/recombinant OM pore producing Acinetobacter baumannii assessed as inhibition of bacterial growth
Acinetobacter baumannii [3] = test: Antibacterial activity against recombinant OM pore producing Acinetobacter baumannii assessed as inhibition of bacterial growth
Acinetobacter baumannii [4] = test: Antibacterial activity against wild type Acinetobacter baumannii assessed as inhibition of bacterial growth
Escherichia coli [5] = test: Antibacterial activity against wild type Escherichia coli assessed as inhibition of bacterial growth
Escherichia coli [6] = test: Antibacterial activity against recombinant OM pore producing Escherichia coli assessed as inhibition of bacterial growth
Escherichia coli [7] = test: Antibacterial activity against efflux pump lacking Escherichia coli assessed as inhibition of bacterial growth
Escherichia coli [8] = test: Antibacterial activity against efflux pump lacking/recombinant OM pore producing Escherichia coli assessed as inhibition of bacterial growth
Pseudomonas aeruginosa [9] = test: Antibacterial activity against wild type Pseudomonas aeruginosa assessed as inhibition of bacterial growth
Pseudomonas aeruginosa [10] = test: Antibacterial activity against recombinant OM pore producing Pseudomonas aeruginosa assessed as inhibition of bacterial growth
Pseudomonas aeruginosa [11] = test: Antibacterial activity against efflux pump lacking Pseudomonas aeruginosa assessed as inhibition of bacterial growth
Pseudomonas aeruginosa [12] = test: Antibacterial activity against efflux pump lacking/recombinant OM pore producing Pseudomonas aeruginosa assessed as inhibition of bacterial growth

| SMILES | IC50 (Acinetobacter baumannii [1]) [µM] | IC50 (Acinetobacter baumannii [2]) [µM] | IC50 (Acinetobacter baumannii [3]) [µM] | IC50 (Acinetobacter baumannii [4]) [µM] | IC50 (Escherichia coli [5]) [µM] | IC50 (Escherichia coli [6]) [µM] | IC50 (Escherichia coli [7]) [µM] | IC50 (Escherichia coli [8]) [µM] | IC50 (Pseudomonas aeruginosa [9]) [µM] | IC50 (Pseudomonas aeruginosa [10]) [µM] | IC50 (Pseudomonas aeruginosa [11]) [µM] | IC50 (Pseudomonas aeruginosa [12]) [µM] |
| --- | --- | --- | --- | --- | --- | --- | --- | --- | --- | --- | --- | --- |
| CNC(=O)NCC#Cc1ccc(N2C[C@H](CO)OC2=O)cc1F | > 100 | > 100 | > 100 | > 100 | > 100 | > 100 | > 100 | 11.2 | > 100 | > 100 | > 100 | > 100 |
| Cn1ncc(C#Cc2ccc(N3C[C@H](CO)OC3=O)cc2F)c1C(=O)O | 88.2 | 89.5 | 61.3 | > 100 | > 100 | > 100 | > 100 | > 100 | > 100 | > 100 | > 100 | > 100 |
| CC(C)(C)OC(=O)N(CC#Cc1ccc(N2C[C@H](CO)OC2=O)cc1F)CC(=O)O | > 100 | > 100 | > 100 | > 100 | > 100 | > 100 | > 100 | > 100 | > 100 | > 100 | > 100 | > 100 |
| O=C1O[C@@H](CO)CN1c1ccc(-c2ccc(-c3cccnc3)cc2)c(F)c1 | > 100 | > 100 | > 100 | > 100 | > 100 | > 100 | > 100 | > 100 | > 100 | > 100 | > 100 | > 100 |
| N=C(N)NCc1ccc(-c2ccc(N3C[C@H](CO)OC3=O)cc2F)cc1 | 67.8 | 32.5 | 65.9 | > 100 | > 100 | 56.1 | 63.8 | 55.7 | > 100 | > 100 | 12 | 25.7 |
| O=C1O[C@@H](CO)CN1c1ccc(-c2ccc3ccncc3c2)c(F)c1 | > 100 | > 100 | > 100 | > 100 | > 100 | > 100 | > 100 | > 100 | > 100 | > 100 | > 100 | 0.1 |
| O=C1O[C@@H](CO)CN1c1ccc(-c2cccc3cc[nH]c23)c(F)c1 | 64.4 | 62.1 | > 100 | > 100 | 77 | 19.5 | 21.6 | 7.2 | > 100 | > 100 | > 100 | > 100 |
| CC(C)(C)OC(=O)NC(CO)CC#Cc1ccc(N2C[C@H](CO)OC2=O)cc1F (some centres not stated) | > 100 | > 100 | > 100 | > 100 | > 100 | 97.3 | 72.6 | 67.8 | > 100 | > 100 | > 100 | > 100 |
| O=C1O[C@@H](CO)CN1c1ccc(-c2ccc3cnccc3c2)c(F)c1 | 5.6 | 5.6 | > 100 | > 100 | > 100 | > 100 | > 100 | > 100 | > 100 | > 100 | 67.7 | 37.9 |
| O=C1O[C@@H](CO)CN1c1ccc(C#CCO)c(F)c1 | > 100 | > 100 | > 100 | > 100 | > 100 | > 100 | 84 | 43.6 | > 100 | > 100 | > 100 | > 100 |
| O=C1O[C@@H](CO)CN1c1ccc(-c2ccc(F)cc2)c(F)c1 | 8.8 | 9.7 | 89.8 | > 100 | 89.1 | 22.8 | 4.3 | 2.3 | > 100 | 89.8 | 8.8 | 2.2 |
| CC(C)(C)OC(=O)NNC(=O)C(CC#Cc1ccc(N2C[C@H](CO)OC2=O)cc1F)NC(=O)OC(C)(C)C (some centres not stated) | > 100 | > 100 | > 100 | > 100 | > 100 | 51.4 | 13.3 | 56.1 | > 100 | > 100 | > 100 | > 100 |
| O=C1O[C@@H](CO)CN1c1ccc(-c2ccc(-c3ccncc3)cc2)c(F)c1 | > 100 | > 100 | > 100 | > 100 | > 100 | > 100 | > 100 | 75.2 | > 100 | > 100 | 92.1 | 1 |
| CC(O)c1ccc(OCC#Cc2ccc(N3C[C@H](CO)OC3=O)cc2F)cc1 (some centres not stated) | 61.9 | 34.7 | > 100 | > 100 | 62.4 | 24.7 | 30.2 | 13.5 | > 100 | > 100 | > 100 | 91.3 |
| O=C(O)CCCC#Cc1ccc(N2C[C@H](CO)OC2=O)cc1F | > 100 | > 100 | > 100 | > 100 | > 100 | > 100 | > 100 | > 100 | > 100 | > 100 | > 100 | > 100 |
| CC(C(=O)NCC#Cc1ccc(N2C[C@H](CO)OC2=O)cc1F)N1CCNCC1 (some centres not stated) | > 100 | > 100 | > 100 | > 100 | > 100 | > 100 | > 100 | > 100 | > 100 | > 100 | > 100 | > 100 |
| CC(C)(C)OC(=O)NCC#Cc1ccc(N2C[C@H](CO)OC2=O)cc1F | > 100 | > 100 | > 100 | > 100 | > 100 | 74.3 | 83.4 | 64.7 | > 100 | > 100 | > 100 | > 100 |
| O=C1O[C@@H](CO)CN1c1ccc(-c2ccnc(N3CCCC3)c2)c(F)c1 | 72.4 | 72.4 | 71.9 | 71.9 | > 100 | 4 | 15.4 | 1.5 | > 100 | > 100 | > 100 | > 100 |
| COC(=O)c1cncc(-c2ccc(N3C[C@H](CO)OC3=O)cc2F)c1 | 12.1 | 12.1 | 83.2 | 83.2 | > 100 | 4.7 | 2.7 | 2.2 | > 100 | > 100 | 32.9 | 38.7 |
| NC(=S)Nc1cccc(C#Cc2ccc(N3C[C@H](CO)OC3=O)cc2F)c1 | > 100 | > 100 | > 100 | > 100 | > 100 | > 100 | 85 | 64.5 | > 100 | > 100 | > 100 | > 100 |
| O=C1O[C@@H](CO)CN1c1ccc(C#Cc2cc(Cl)cc(Cl)c2)c(F)c1 | > 100 | > 100 | > 100 | > 100 | 74.8 | 12.8 | 26.1 | 3.6 | > 100 | > 100 | 64.9 | 16.2 |
| O=C1O[C@@H](CO)CN1c1ccc(-c2ccc(O)cc2)c(F)c1 | 8.4 | 7.3 | 12.9 | > 100 | > 100 | 22.1 | 2 | 2.3 | > 100 | 27.7 | 8.4 | 5.8 |
| CSCC#Cc1ccc(N2C[C@H](CO)OC2=O)cc1F | > 100 | > 100 | > 100 | > 100 | 94.9 | 35.1 | 65.9 | 47.8 | > 100 | > 100 | > 100 | > 100 |
| COCC#Cc1ccc(N2C[C@H](CO)OC2=O)cc1F | > 100 | > 100 | > 100 | > 100 | 74.9 | 36.3 | 80.3 | 44 | > 100 | > 100 | > 100 | > 100 |
| O=C1O[C@@H](CO)CN1c1ccc(-c2ccc3c(c2)OCO3)c(F)c1 | 2.4 | 1.5 | > 100 | > 100 | 23 | 2.4 | 0.3 | 0.3 | > 100 | > 100 | 2.4 | 0.3 |
| O=C1O[C@@H](CO)CN1c1ccc(-c2ccccn2)c(F)c1 | > 100 | > 100 | > 100 | > 100 | > 100 | > 100 | 76.8 | 79.6 | > 100 | > 100 | 64.2 | 47.4 |
